Reference: ChEMBL document CHEMBL1150193, “Euglobal T1, a New Euglobal from Eucalyptus tereticornis” (J Nat Prod, 1991)
Active and inactive are the calls of the source. The calls are words filed in the database; no cut-off is given here.

Tested on: human gammaherpesvirus 4
Test: Inhibition of Epstein-Barr virus early antigen activation

Row | Activity | SMILES
1 | inactive | CC(C)CC(=O)c1c(O)c(C=O)c(O)c2c1O[C@]1(C)C=C[C@@H](C(C)C)C[C@@H]1C2
2 | inactive | CC(C)CC(=O)c1c(O)c(C=O)c2c(c1O)C[C@H]1C[C@H](C(C)C)C=C[C@@]1(C)O2
